Each block holds one compound with its values, some of them ahead of it.
How the values were obtained:
TtEst2 [1] = target: T1, TtEst2 (Thermogutta terrifontis, UniProt A0A0X1KHD1); test: X-ray crystal structure, soak; type: binding; conditions: carboxyl pocket of active site
T1 construct: mature form, predicted signal peptide removed; pLATE52 N-terminal His6 tag with WELQ protease site (cleavage not mentioned); E. coli BL21 (DE3); monomer; residues 1-283 modelled

TtEst2 [2] = target: T1, TtEst2; test: pNP release, A410; type: biochemical; conditions: 1 mM substrate, 20 mM HEPES, 100 mM NaCl, pH 7.5, 25 C

T1 sequence (A0A0X1KHD1 entry or part of it): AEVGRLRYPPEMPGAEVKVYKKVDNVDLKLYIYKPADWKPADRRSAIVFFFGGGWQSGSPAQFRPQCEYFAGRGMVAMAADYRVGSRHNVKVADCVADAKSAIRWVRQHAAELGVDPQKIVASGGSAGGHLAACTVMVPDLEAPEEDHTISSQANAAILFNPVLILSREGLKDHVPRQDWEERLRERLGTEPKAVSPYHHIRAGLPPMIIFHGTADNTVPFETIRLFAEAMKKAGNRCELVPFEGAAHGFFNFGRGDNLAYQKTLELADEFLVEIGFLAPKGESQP

- X-ray crystal structure, soak (TtEst2 [1]; pH 4.5, 25 mM soak, oxyanion hole, 1.79 A): 5AOB (butyrate bound)
SMILES: CCCC(=O)O [butyrate]

SMILES: CC(=O)Oc1ccc([N+](=O)[O-])cc1 [pNP-acetate]
- pNP release, A410 (TtEst2 [2]): The enzyme was most active toward pNP-acetate

- X-ray crystal structure, soak (TtEst2 [1]; pH 4.5, 25 mM soak, oxyanion hole, 1.71 A): 5AOA (propionate bound)
SMILES: CCC(=O)O [propionate]

- X-ray crystal structure, soak (TtEst2 [1]; pH 4.5, soaked as 25 mM pNP-valerate, only valerate part seen, 1.79 A): 5AOC (valerate bound)
SMILES: CCCCC(=O)O [valerate]

Reference: PMC4655241, “The Structure of a Novel Thermophilic Esterase from the Planctomycetes Species, Thermogutta terrifontis Reveals an Open Active Site Due to a Minimal ‘Cap’ Domain” (Frontiers in Microbiology, 2015)
